Measurements reported in a melting point compilation (Tetko et al.).

| SMILES | melting point |
| --- | --- |
| COc1ccc(CC2c3cc(OC)c(OC)cc3CCN2C)cc1OC (centres undefined) | 89 °C |
| NC(=O)NN=Cc1ccc2c(Br)cccc2c1 | 270 °C |
| O=C(O)c1cccc(OC(F)(F)C(F)F)c1 | 127 to 128 °C |
| O=c1cc(C(F)(F)F)c2cc3c4c(c2o1)CCCN4CCC3 | 167 to 168 °C |
| Nc1ccc(F)cc1O | 138 °C |
| Cc1ccc(C)c(CNC2=CC(=O)c3ccccc3C2=O)c1 | 164 °C |
| O=S(=O)(O)CCS(=O)(=O)O | 173 °C |
| Cc1ccccc1C=CC(=O)O | 175 to 177 °C |
| O=S(=O)(O)c1cccc2cccc(Cl)c12 | 145 to 147 °C |
| N#CC=P(c1ccccc1)(c1ccccc1)c1ccccc1 | 189 to 198 °C |
| O=C(O)CNC(=O)c1ccccc1O | 168 °C |
| Cc1cc(C(F)(F)F)n2nc(N)c(/N=N/c3c(Cl)cc(Cl)cc3Cl)c2n1 | 189 °C |
| S=C(NN=Cc1c(-c2ccc(Cl)cc2)[nH]c2ccccc12)Nc1ccccc1 | 211 to 212 °C |
| Nc1c(F)cc(O)cc1F | 149 °C |
| CN(C)c1ccc(C2Nn3c(COc4ccccc4)nnc3S2)cc1 (centres undefined) | 143 to 144 °C |
| Cc1cc(C)c2c(c1C)CC2=O | 98 °C |
| CCCNc1cc(=O)oc2ccccc12 | 111 °C |
| COc1cc(/C=C\C(=O)NCCc2ccc(OCc3ccccc3)c(OC)c2)ccc1OCc1ccccc1 | 163 °C |
| COc1ccccc1N1CCN(CCCC(=O)c2ccc(F)cc2)CC1 | 67.5 °C |
| CNC1CC2OC(C)(C1OC)n1c3ccccc3c3c4c(c5c6ccccc6n2c5c31)C(=O)NC4 (centres undefined) | 270 °C |
| CCOC(=O)c1ccc(Oc2ccc(C)nn2)cc1 | 70 to 73 °C |
| COC(=O)c1ccc(CO)cc1 | 45 to 50 °C |
| CC12CCCC1C1CCC3CC4(CCC3(C)C1CC2)OCCO4 (centres undefined) | 117 °C |

| SMILES | melting point |
| --- | --- |
| Nc1cccnc1N | 114 to 116 °C |
| COc1ccc2cc(Br)ccc2c1CC#N | 147 to 148 °C |
| Nc1ccc(C#Cc2ccc(N)cc2)cc1 | 235 to 236 °C |
| CN(C)c1ccc(C2Nn3c(nnc3-c3cccc([N+](=O)[O-])c3)S2)cc1 (centres undefined) | 197 to 199 °C |
| N#CC1=C(N)n2nc(C(F)(F)F)nc2NC1c1c(Cl)cccc1Cl (centres undefined) | 323 °C |
| CCOC(=O)c1ccc2cn[nH]c2c1 | 125 °C |
| O=C(O)CCCCCCCCCCCO | 86.5 °C |
| Cc1ccc(Cl)c(O)c1F | 48 °C |
| CC#CC1(O)CCC2C3CC(C)C4=CC(=O)CCC4(C)C3CCC21C (centres undefined) | 102 °C |
| O=C1OC(c2ccccc2)=N/C1=C/c1cc(/C=C2/N=C(c3ccccc3)OC2=O)c([N+](=O)[O-])cc1[N+](=O)[O-] | 266 °C |
| Nc1ccc(C2=NN(c3ccccc3)C(=O)C2)cc1 | 160 °C |
| Cc1nc(-c2ccc(S(=O)(=O)Cl)s2)cs1 | 88 to 90 °C |
| S=C1NCCCCN1 | 178 to 180 °C |
| N#C/C(=N/Nc1ccccc1[N+](=O)[O-])c1nc(-c2ccccc2)cs1 | 210 °C |
| c1ccc(C/C(=N\Nc2ccccc2)c2ccc3ccccc3c2)cc1 | 165 to 167 °C |
| CCOc1c2cccc1Cc1cccc(c1O)Cc1cccc(c1OP(=O)(OCC)OCC)Cc1cccc(c1O)C2 | 173 to 174 °C |
| CCC(Br)=CBr | -49.5 °C |
| COc1ccc(C(O)C(=O)O)cc1O (racemic) | 125 to 132 °C |
| Oc1ccc(Cl)cc1Br | 33 °C |
| O=[N+]([O-])c1ccc(S)cc1 | 74 to 77 °C |
| C(=Cc1ccccc1)CCC=Cc1ccccc1 | 82 °C |
| Nc1ccc(Br)cc1F | 40 °C |
| O=C(c1ccccc1)c1ccc(F)cc1 | 47 °C |

| SMILES | melting point |
| --- | --- |
| O=C(O)c1sccc1C1OCCO1 | 142 to 144 °C |
| Oc1c2cccc1Cc1cccc(c1O)Cc1cccc(c1O)Cc1cccc(c1O)Cc1cccc(c1O)Cc1cccc(c1O)C2 | 417 to 418 °C |
| COc1cc(C=NNC(=O)CCn2c(C)nc3ccccc32)ccc1O | 230 °C |
| Nc1ccc(C(=O)O)cn1 | 312 °C |
| O=C(O)c1cnc2ccccc2c1 | 277 to 283 °C |
| COc1cc(C)cc(OC)c1O | 39 °C |
| COc1ccc(CC#N)cc1Br | 52 °C |
| CC1=C(C(=O)OCc2ccccc2)C(c2ccc3c(c2)OCO3)NC(=O)N1 (centres undefined) | 158 to 160 °C |
| CC(C)(c1ccc(OC(=O)Cl)cc1)c1ccc(OC(=O)Cl)cc1 | 90 to 95 °C |
| CC(=O)Oc1ccc([N+](=O)[O-])cc1 | 76 to 79 °C |
| N#CC1=C(N)Oc2c(Br)cc(Br)cc2C1C(C#N)C#N (centres undefined) | 300 °C |
| O=C(O)c1cc(Cl)ccc1C(F)(F)F | 86 °C |
| O=C(O)c1ccc(-c2ncccn2)cc1 | 238 to 240 °C |
| CN(C)c1ccccc1[N+](=O)[O-] | -20 °C |
| CC12CCC(C(C(Br)N(O)c3ccccc3)C1=O)C2(C)C (centres undefined) | 121 °C |
| Cc1nc(-c2ccc(C(F)(F)F)cc2)sc1C(=O)Cl | 85 to 86 °C |
| O=C(O)Cc1cn(-c2ccccc2)nc1-c1ccc(Cl)cc1 | 150 °C |
| CC(C)(C)c1cc(CO)cc(C(C)(C)C)c1O | 140 °C |
| COc1ccc(C=CC(=O)Oc2ccc(C=CC(=O)c3ccccc3)cc2)cc1 | 158 °C |
| Cc1ccc(F)c(C#N)c1Cl | 59 °C |
| OC1C2COC(O2)C(O)C1O (centres undefined) | 183 °C |
| COc1ccc2cc(C(O)C(C)O)ccc2c1 (centres undefined) | 115 °C |
| OCC1OC(O)CC(O)C1O (centres undefined) | 150 °C |

| SMILES | melting point |
| --- | --- |
| N#Cc1sc2c(=O)c3ccccc3c(=O)c=2sc1C#N | 225 °C |
| Clc1cc(Cl)cc(C2(CC(Cl)(Cl)Cl)CO2)c1 (centres undefined) | 42.8 °C |
| Cc1ccc(S(=O)(=O)C#N)cc1 | 48 °C |
| Cc1cc([N+]([O-])=Nc2ccc(N=Nc3ccccc3)cc2)ccc1N=Nc1ccc(N=Nc2ccccc2)cc1 | 193 °C |
| O=C(c1c[nH]c2ccccc12)C(F)(F)F | 211 to 214 °C |
| NNC(=O)CCc1ccc(O)cc1 | 223 to 225 °C |
| Clc1cc(Cl)c(I)cc1Cl | 104 °C |
| CCOC(=O)c1[nH]c2cc(Cl)cc(Cl)c2c1C=O | 213 to 217 °C |
| O=C1c2ccccc2S(=O)(=O)N1Br | 160 to 170 °C |
| COP1(=S)OCc2ccccc2O1 (centres undefined) | 55 °C |
| c1ccc(C2CCCNC2)cc1 (centres undefined) | 14.5 °C |
| CCOc1ccccc1C=O | 21 °C |
| CCc1cc2cc(OC)c(OC)cc2c(Cc2ccccc2)n1 | 78 °C |
| CCOC(=O)c1cc2cc(OC)ccc2o1 | 59 to 61 °C |
| O=C(Cl)/C=C/c1cccc(C(F)(F)F)c1 | 30 °C |
| O=C(C=Cc1ccccc1)c1ccc(O)cc1 | 174 to 178 °C |
| COc1c(Cl)cccc1Cl | 10 to 11 °C |
| Nc1[nH]c(=O)[nH]c(=O)c1N=O | 280 °C |
| COc1cc(C(C)=O)cc(OC)c1O | 123 to 128 °C |
| CCC(C)CC | -118 °C |
